{"source": "paper PMC4459529", "about": "(Chemistry & biology, 2015)", "biological_target": "monoacylglycerol lipase (MGL) (Rattus norvegicus, UniProt Q8R431)", "sequence (Q8R431 whole entry)": "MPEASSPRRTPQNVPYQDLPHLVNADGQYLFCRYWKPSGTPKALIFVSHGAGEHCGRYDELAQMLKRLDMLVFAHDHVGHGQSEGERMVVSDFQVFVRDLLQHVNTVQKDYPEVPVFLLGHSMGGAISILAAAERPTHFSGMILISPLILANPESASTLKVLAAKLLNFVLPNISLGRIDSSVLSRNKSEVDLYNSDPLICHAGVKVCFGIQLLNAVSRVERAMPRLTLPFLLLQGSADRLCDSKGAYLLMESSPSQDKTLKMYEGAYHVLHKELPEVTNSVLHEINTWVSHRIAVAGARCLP", "assay": "biochemical", "data": [{"smiles": "OO", "note": "[hydrogen peroxide]", "values": [{"measurement": "IC50", "result": "8.2 ± 1.3", "unit": "µM"}]}]}
